In patent US20230159509A1 (Amathus Therapeutics, Inc., priority 2020, published 2023):

Molecular target: T1, TRAP1 enzyme (Homo sapiens, UniProt Q12931)
T1 construct: 150 nM Trap1 enzyme was incubated with various concentrations of the test compound
T1 sequence (Q12931 60-704): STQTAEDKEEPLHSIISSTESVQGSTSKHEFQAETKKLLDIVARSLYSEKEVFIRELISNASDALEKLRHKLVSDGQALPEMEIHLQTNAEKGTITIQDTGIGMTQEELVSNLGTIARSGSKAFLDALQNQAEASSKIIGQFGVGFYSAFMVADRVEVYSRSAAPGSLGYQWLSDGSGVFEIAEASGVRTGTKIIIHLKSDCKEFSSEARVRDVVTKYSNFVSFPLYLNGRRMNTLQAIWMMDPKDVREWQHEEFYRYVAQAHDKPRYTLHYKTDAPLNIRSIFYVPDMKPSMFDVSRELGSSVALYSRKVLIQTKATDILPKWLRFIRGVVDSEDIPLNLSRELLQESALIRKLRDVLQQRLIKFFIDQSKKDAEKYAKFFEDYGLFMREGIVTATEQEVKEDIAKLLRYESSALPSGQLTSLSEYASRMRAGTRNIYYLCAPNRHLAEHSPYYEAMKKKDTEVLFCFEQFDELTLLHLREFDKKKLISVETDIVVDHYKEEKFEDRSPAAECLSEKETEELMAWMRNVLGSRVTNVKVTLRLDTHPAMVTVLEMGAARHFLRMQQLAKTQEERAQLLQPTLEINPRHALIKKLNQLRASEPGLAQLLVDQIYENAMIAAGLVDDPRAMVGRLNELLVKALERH
Test: ADP Glo assay of TRAP1 ATPase activity
Assay type: biochemical
Details: for EC50: concentration for half maximal activation, read-out: ADP GLO DRC: GeoMean EC50; for Emax: maximal percent activation, read-out: ADP GLO DRC: Mean Emax
Summary of the method: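 ADP-Glo luminescence quantifying ADP from 150 nM TRAP1 preincubated 30 min at 37° C with compound (0.79–100 μM), then 20 μM ATP for 60 min at 37° C. Buffer: 25 mM Pipes pH 7.5, 40 mM KCl, 0.05 mM MgCl2, EGTA, BSA, detergents. ADP from ATP/ADP standard curve; Emax and EC50 from sigmoidal fit.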

| EC50 [µM] | Emax [%] | SMILES |
| --- | --- | --- |
| < 10 | 200 to 300 | COc1ncc(NC(=O)c2csc3c2CN(C(=O)OC(C)(C)C)CC3)cc1S(=O)(=O)Nc1c(C)cccc1C [compound 1949, tert-butyl 3-((5-(N-(2,6-dimethylphenyl)sulfamoyl)-6-methoxypyridin-3-yl)carbamoyl)-6,7-dihydrothieno[3,2-c]pyridine-5(4H)-carboxylate] |
| < 10 | 119 to 159 | COc1ncc(NC(=O)c2coc(-c3ccccc3)n2)cc1S(=O)(=O)Nc1ccc(F)cc1C [compound 1950, N-(5-(N-(4-fluoro-2-methylphenyl)sulfamoyl)-6-methoxypyridin-3-yl)-2-phenyloxazole-4-carboxamide] |
| 20 to 100 | 119 to 159 | COc1ncc(NC(=O)c2csc(-c3ccccc3)n2)cc1S(=O)(=O)Nc1c(C)cccc1O [compound 1953, N-(5-(N-(2-hydroxy-6-methylphenyl)sulfamoyl)-6-methoxypyridin-3-yl)-2-phenylthiazole-4-carboxamide] |
| 20 to 100 | 119 to 159 | COc1ncc(NC(=O)c2csc(-c3ccccc3)n2)cc1S(=O)(=O)Nc1sccc1C [compound 1954, N-(6-methoxy-5-(N-(3-methylthiophen-2-yl)sulfamoyl)pyridin-3-yl)-2-phenylthiazole-4-carboxamide] |
| 20 to 100 | 200 to 300 | COc1ncc(NC(=O)c2csc3c2CN(C)CC3)cc1S(=O)(=O)Nc1c(C)cccc1C [compound 1956, N-(5-(N-(2,6-dimethylphenyl)sulfamoyl)-6-methoxypyridin-3-yl)-5-methyl-4,5,6,7-tetrahydrothieno[3,2-c]pyridine-3-carboxamide] |
| 10 to 20 | 160 to 199 | COc1ncc(NC(=O)c2ncoc2C)cc1S(=O)(=O)Nc1ccc(Cl)cc1 [compound 1959, N-(5-(N-(4-chlorophenyl)sulfamoyl)-6-methoxypyridin-3-yl)-5-methyloxazole-4-carboxamide] |
| 20 to 100 | 160 to 199 | COc1ncc(NC(=O)c2coc(-c3ccccc3)n2)cc1S(=O)(=O)Nc1c(Cl)cccc1C(F)(F)F [compound 1962, N-(5-(N-(2-chloro-6-(trifluoromethyl)phenyl)sulfamoyl)-6-methoxypyridin-3-yl)-2-phenyloxazole-4-carboxamide] |
| < 10 | 119 to 159 | COc1ncc(NC(=O)c2coc(-c3ccccc3)n2)cc1S(=O)(=O)Nc1c(C)cc(C#N)cc1C [compound 1965, N-(5-(N-(4-cyano-2,6-dimethylphenyl)sulfamoyl)-6-methoxypyridin-3-yl)-2-phenyloxazole-4-carboxamide] |
| 20 to 100 | 160 to 199 | COc1ncc(NC(=O)c2coc(-c3ccccc3)n2)cc1S(=O)(=O)Nc1ncc(Cl)cc1C [compound 1966, N-(5-(N-(5-chloro-3-methylpyridin-2-yl)sulfamoyl)-6-methoxypyridin-3-yl)-2-phenyloxazole-4-carboxamide] |
| 10 to 20 | 200 to 300 | COc1ncc(NC(=O)c2csc(-c3ccccc3)n2)cc1S(=O)(=O)Nc1c(C(F)(F)F)cccc1C(F)(F)F [compound 1970, N-(5-(N-(2,6-bis(trifluoromethyl)phenyl)sulfamoyl)-6-methoxypyridin-3-yl)-2-phenylthiazole-4-carboxamide] |
| 20 to 100 | 160 to 199 | COc1ncc(NC(=O)c2csc3c2CNCC3)cc1S(=O)(=O)Nc1c(C)cccc1C [compound 1972, N-(5-(N-(2,6-dimethylphenyl)sulfamoyl)-6-methoxypyridin-3-yl)-4,5,6,7-tetrahydrothieno[3,2-c]pyridine-3-carboxamide] |
| 20 to 100 | 200 to 300 | COc1ncc(NC(=O)c2coc(-c3ccccc3)n2)cc1S(=O)(=O)Nc1ncc(Cl)cc1F [compound 1977, N-(5-(N-(5-chloro-3-fluoropyridin-2-yl)sulfamoyl)-6-methoxypyridin-3-yl)-2-phenyloxazole-4-carboxamide] |
| < 10 | 160 to 199 | COc1ncc(NC(=O)c2csc(-c3ccccc3)n2)cc1S(=O)(=O)Nc1c(C)csc1C [compound 1985, N-(5-(N-(2,4-dimethylthiophen-3-yl)sulfamoyl)-6-methoxypyridin-3-yl)-2-phenylthiazole-4-carboxamide] |
| < 10 | 200 to 300 | COc1ncc(NC(=O)c2coc(-c3ccccc3)n2)cc1S(=O)(=O)Nc1c(C)cccc1C1CC1 [compound 1986, N-(5-(N-(2-cyclopropyl-6-methylphenyl)sulfamoyl)-6-methoxypyridin-3-yl)-2-phenyloxazole-4-carboxamide] |
| 10 to 20 | 200 to 300 | COc1ccc(F)cc1C(=O)Nc1cnc(OC)c(S(=O)(=O)Nc2c(C)cccc2C)c1 [compound 1990, N-(5-(N-(2,6-dimethylphenyl)sulfamoyl)-6-methoxypyridin-3-yl)-5-fluoro-2-methoxybenzamide] |
| 10 to 20 | 200 to 300 | COc1ncc(NC(=O)c2coc(-c3ccccc3)n2)cc1S(=O)(=O)Nc1ccc(F)c(F)c1C [compound 2000] |
| 10 to 20 | 160 to 199 | COc1ncc(NC(=O)c2coc(-c3ccccc3)n2)cc1S(=O)(=O)Nc1cc(F)c(F)cc1C [compound 2002] |
| 10 to 20 | 160 to 199 | COc1ncc(NC(=O)c2csc(-c3ccccc3)n2)cc1S(=O)(=O)Nc1ccccc1CO [compound 2004] |
| 20 to 100 | 119 to 159 | COc1ncc(NC(=O)c2csc(-c3ccccc3)n2)cc1S(=O)(=O)Nc1ccc(C(F)(F)F)cn1 [compound 2005] |
| 20 to 100 | 200 to 300 | COc1ncc(NC(=O)c2csc(-c3ccccc3)n2)cc1S(=O)(=O)Nc1c(C#N)cccc1C(F)(F)F [compound 2068] |

| EC50 [µM] | Emax [%] | SMILES |
| --- | --- | --- |
| 20 to 100 | 200 to 300 | COc1ncc(NC(=O)c2csc(-c3ccccc3)n2)cc1S(=O)(=O)Nc1ncc(C(F)(F)F)cn1 [compound 2069] |
| < 10 | 160 to 199 | COc1ncc(NC(=O)c2coc(-c3ccccc3)n2)cc1S(=O)(=O)Nc1c(C)ccc(C#N)c1C [compound 2072] |
| 20 to 100 | 200 to 300 | COc1ncc(NC(=O)c2csc(-c3ccccc3)n2)cc1S(=O)(=O)Nc1sc2c(c1C#N)CCCC2 [compound 2088] |
| < 10 | 200 to 300 | COc1ncc(NC(=O)c2c[nH]c(-c3ccccc3)n2)cc1S(=O)(=O)Nc1c(C)cccc1C [compound 2092] |
| 20 to 100 | 200 to 300 | COc1ncc(NC(=O)c2ncc(-c3ccccc3)o2)cc1S(=O)(=O)Nc1cccc(C(F)(F)F)n1 [compound 2119] |
| 20 to 100 | 200 to 300 | COc1ncc(NC(=O)c2csc(-c3ccccc3)n2)cc1S(=O)(=O)Nc1cccc(C#N)n1 [compound 2142] |
| 20 to 100 | 160 to 199 | COc1ncc(NC(=O)c2ncc(-c3ccccc3)o2)cc1S(=O)(=O)Nc1cccc(C#N)n1 [compound 2148] |
| 20 to 100 | 200 to 300 | COc1ncc(NC(=O)c2coc(-c3cc(F)c(F)c(F)c3)n2)cc1S(=O)(=O)Nc1cccc(C(F)(F)F)n1 [compound 2151] |
| 10 to 20 | 200 to 300 | COc1ncc(NC(=O)c2csc(-c3ccccc3)n2)cc1S(=O)(=O)Nc1cc(F)c(C)cc1C#N [compound 2155] |
| 20 to 100 | 200 to 300 | COc1ncc(NC(=O)c2coc(-c3ccccc3)n2)cc1S(=O)(=O)Nc1cc(C(F)(F)F)n[nH]1 [compound 2156] |
| 20 to 100 | 160 to 199 | COc1ncc(NC(=O)c2coc(-c3ccccc3)n2)cc1S(=O)(=O)Nc1cccc(C#N)n1 [compound 2157] |
| 20 to 100 | 119 to 159 | COc1ncc(NC(=O)c2ncc(-c3ccccc3)o2)cc1S(=O)(=O)Nc1cc(C(F)(F)F)n[nH]1 [compound 2361] |
| 20 to 100 | 200 to 300 | COc1ncc(NC(=O)c2csc(-c3ccccc3)n2)cc1S(=O)(=O)Nc1cc(C(F)(F)F)ncc1C [compound 2365] |
| < 10 | 160 to 199 | COc1ncc(NC(=O)c2ncc(-c3ccccc3)o2)cc1S(=O)(=O)Nc1ccc(F)c(F)c1C [compound 2366] |
| < 10 | 200 to 300 | COc1ncc(NC(=O)c2coc(-c3ccccc3)n2)cc1S(=O)(=O)Nc1ccc(F)cc1C(C)C [compound 2381] |
| 20 to 100 | 200 to 300 | COc1ncc(NC(=O)c2coc(-c3cccnc3)n2)cc1S(=O)(=O)Nc1c(C)cccc1C [compound 2387] |
| 10 to 20 | 200 to 300 | COc1ncc(NC(=O)c2csc(-c3cccnc3)n2)cc1S(=O)(=O)Nc1ccc(F)c(F)c1C [compound 2390] |
| 20 to 100 | 160 to 199 | COc1ncc(NC(=O)c2ncc(-c3ccccc3)o2)cc1S(=O)(=O)Nc1nc(C(C)(C)C)ns1 [compound 2396] |
| 20 to 100 | 119 to 159 | COc1ncc(NC(=O)c2cnc(-c3ccccc3)o2)cc1S(=O)(=O)Nc1cccc(C(F)(F)F)n1 [compound 2397] |
